Tests used:
[1] = test system: Rhizoctonia solani; test: Activity against Rhizoctonia in-vitro (RSI); type: cell-based; settings: 10 ppm, 10 days, 20° C., mycelial growth
Method in brief: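 R. solani mycelial fragments (5×10^4/ml) in half-strength Potato Dextrose Broth with compound added from acetone to 10 ppm final. Mycelial growth assessed after 10 days at 20° C, rated against untreated or diluent control.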

[2] = test system: Plasmopara viticola; test: Antisporulant activity against vine downy mildew (PVA); type: in vivo; settings: vine leaves, antisporulant foliar spray, 600 ppm, 750 l/ha
Method in brief: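 Cabernet Sauvignon vines (~8 cm) inoculated on lower leaf surfaces with 5×10^4 zoosporangia/ml, held 24 h at 21° C high humidity then 24 h glasshouse. Infected leaves sprayed underside with 600 ppm compound in 1:1 water/acetone, 0.04% Tween 20, 750 l/ha; 96 h glasshouse, 24 h humidity. Sporulating leaf area rated versus control.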

[3] = test system: Pseudocercosporella herpotrichoides; test: Activity against wheat eyespot in-vitro (PHI); type: cell-based; settings: 10 ppm, 10 days, 20° C., mycelial growth
Method in brief: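 P. herpotrichoides mycelial fragments (5×10^4/ml) grown in half-strength PDB with compound at 10 ppm final, added from acetone. Incubated 10 days at 20 °C; mycelial growth rated against untreated or diluent controls.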

[4] = test system: Pyricularia oryzae; type: in vivo; settings: rice seedlings, direct therapeutic foliar spray, 600 ppm, 4-5 days
[5] = test system: Botrytis cinerea; test: Direct protectant activity against broad bean grey mould (BCB); type: in vivo; settings: direct protectant foliar spray, 600 ppm, 4 days
Method in brief: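 Broad bean plants (cv The Sutton, two leaf pairs) sprayed on upper leaf surfaces at 600 ppm, then inoculated 24 h later with 10^6 conidia/ml. Kept 4 days at 22 °C, high humidity; disease control rated from % leaf area with lesions against untreated or diluent controls.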

[6] = test system: Erysiphe graminis f.sp. hordei; test: Activity against barley powdery mildew, direct therapeutic (EGT); type: in vivo; settings: direct therapeutic foliar spray, 600 ppm, up to 7 days
Method in brief: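 Barley seedlings (cv. Golden Promise, single-leaf stage) were dusted with mildew conidia one day before a therapeutic foliar spray of 600 ppm compound. Plants were kept at 18 °C and 40% humidity for up to 7 days, and sporulating leaf area was rated against untreated or diluent-sprayed controls.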

[7] = test system: Alternaria solani; test: Activity against tomato early blight (AS); type: in vivo; settings: Table VI; tomato seedlings, contact prophylactic foliar spray, 4 days
Method in brief: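 Foliar contact prophylactic spray on tomato seedlings (cv Outdoor Girl, second true leaf expanded) in acetone/water 50:50 with 0.04% Tween 20; 24 h at 20° C, 40% R.H., then inoculation with 10^4 spores/ml A. solani conidia. Kept moist at 21° C; lesion cover rated 4 days post-inoculation against untreated or diluent-sprayed controls.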

[8] = test system: Erysiphe graminis f.sp. hordei; test: Direct protectant activity against barley powdery mildew (EGP); type: in vivo; settings: direct protectant foliar spray, 8 days
Method in brief: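 Barley seedlings (cv Golden Promise, single-leaf stage) were foliar-sprayed, held 24 h at 18 °C/40% RH, then dusted with mildew conidia. After 8 days at 18 °C/40% RH, sporulating leaf area was scored as a rating against untreated or diluent-sprayed controls.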

[9] = test system: Venturia inaequalis; test: Activity against apple scab in-vitro (VII); type: cell-based; settings: 10 ppm, 10 days, 20° C., mycelial growth
Method in brief: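 Compound in acetone was tested at 10 ppm final in half-strength Potato Dextrose Broth inoculated with V. inaequalis mycelial fragments and spores at 5×10^4 propagules/ml. After 10 days at 20° C, mycelial growth was rated against untreated or diluent controls.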

[10] = test system: Phytophthora infestans; type: in vivo; settings: tomato, direct protectant foliar spray
[11] = test system: Leptosphaeria nodorum; test: Activity against wheat leafspot (LN); type: in vivo; settings: direct therapeutic foliar spray, 600 ppm, 6-8 days
Method in brief: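 Wheat cv Norman at single-leaf stage spray-inoculated with 1.5×10^6 conidia/ml, held 24 h at high humidity, then sprayed therapeutically with test compound at 600 ppm. Kept 6-8 days at 22° C, 70% humidity; lesion density per leaf rated against untreated or diluent-sprayed controls.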

Row | Compound | disease control rating RSI [1] | disease control rating PVA [2] | disease control rating PHI [3] | disease control rating PO [4] | disease control rating BCB [5] | disease control rating EGT [6] | disease control rating AS [7] | disease control rating EGP [8] | disease control rating VII [9] | disease control rating PIP [10] | disease control rating LN [11]
1 | CC(C)(C1CCCCC1)C1CCC2(CC1)CC(NC1CCCCC1)CO2 (stereo not shown) [Compound 142] | 2 (greater than 80% disease control) | 0 (less than 50% disease control) | 2 (greater than 80% disease control) | 0 (less than 50% disease control) | 0 (less than 50% disease control) | 2 (greater than 80% disease control) | 0 (less than 50% disease control) | 2 (greater than 80% disease control) | 2 (greater than 80% disease control) | 1 (about 50-80% disease control) | 0 (less than 50% disease control)
2 | CC(C)CN(CC(C)C)C1COC2(CCC(C(C)(C)C)CC2)C1 (stereo not shown) [Compound 143] | 0 (less than 50% disease control) | 0 (less than 50% disease control) | 0 (less than 50% disease control) | 0 (less than 50% disease control) | 0 (less than 50% disease control) | 2 (greater than 80% disease control) | 0 (less than 50% disease control) | 2 (greater than 80% disease control) | 0 (less than 50% disease control) | 0 (less than 50% disease control) | 0 (less than 50% disease control)
3 | CC(C)(C)C1CCC2(CC1)CC(CN)CO2 (stereo not shown) [Compound 181, 8-t-Butyl-3-aminomethyl-1-oxaspiro(4,5)decane] | 0 (less than 50% disease control) | 0 (less than 50% disease control) | 0 (less than 50% disease control) | 0 (less than 50% disease control) | 0 (less than 50% disease control) | 2 (greater than 80% disease control) | 0 (less than 50% disease control) | 2 (greater than 80% disease control) | 0 (less than 50% disease control) | 2 (greater than 80% disease control) | 0 (less than 50% disease control)
4 | CC(C)(C)C1CCC2(CC1)CC(CNC1CCCCC1)CO2 (stereo not shown) [Compound 182, 8-t-Butyl-3-cyclohexylaminomethyl-1-oxaspiro(4,5)decane] | 2 (greater than 80% disease control) | 0 (less than 50% disease control) | 1 (about 50-80% disease control) | 0 (less than 50% disease control) | 1 (about 50-80% disease control) | 2 (greater than 80% disease control) | 0 (less than 50% disease control) | 2 (greater than 80% disease control) | 2 (greater than 80% disease control) | 0 (less than 50% disease control) | 1 (about 50-80% disease control)
5 | CCCCCCCCNCC1COC2(CCC(C(C)(C)C)CC2)C1 (stereo not shown) [Compound 183, 8-t-butyl-3-n-octylaminomethyl-1-oxaspiro(4,5)-decane] | 2 (greater than 80% disease control) | 0 (less than 50% disease control) | 1 (about 50-80% disease control) | 0 (less than 50% disease control) | 0 (less than 50% disease control) | 2 (greater than 80% disease control) | 0 (less than 50% disease control) | 2 (greater than 80% disease control) | 2 (greater than 80% disease control) | 1 (about 50-80% disease control) | 0 (less than 50% disease control)

Reference: patent US5591741A, “Fungicidal spiroheterocyclic derivatives” (American Cyanamid Company, priority 1993, dated 1997)
